Results from patent US20210309658A1, “ARYL COMPOUNDS FOR THE TREATMENT AND PROPHYLAXIS OF BACTERIAL INFECTION” (Hoffmann-La Roche Inc., priority 2018, published 2021).
In brackets after ≈: the same amount, converted by molar mass. Read-outs that look alike come from different tables or passages of the source.

Legend:
Assay type in all cases: cell-based
E. coli (BW25113) = experiment: 50% growth inhibitory concentration (IC50) determination assay, E. coli; conditions: Escherichia coli, read-out: IC50 (μM) E. coli K12 BW25113
Procedure: (§1) The in vitro antimicrobial activity of the compounds against E. coli (BW25113, obtained from Coli Genetic Stock Center, #7636) and K. pneumoniae (ATCC10031) was determined according to the following procedure:
(§2) The assay used a 10-points Iso-Sensitest broth medium to measure quantitatively the in vitro activity of the compounds against E. coli BW25113 and K. pneumoniae ATCC 10031.
(§3) Stock compounds in DMSO were serially two-fold diluted (range from 50 to 0.097 μM final concentration) in 384 wells microtiter plates and inoculated with 49 μL the bacterial suspension in Iso-Sensitest broth medium to have a final cell concentration of ˜5×10^5 CFU/mL in a final volume/well of 50 μL/well. Microtiter plates were incubated at 35±2° C.
(§4) Bacterial cell growth was determined with the measurement of optical density at λ=600 nm each 20 minutes over a time course of 16 h.
(§5) Growth inhibition was calculated during the logarithmic growth of the bacterial cells with determination of the concentration inhibiting 50% (IC50) of the growth.

[1] = tested on: K. pneumoniae (ATCC10031); experiment: 50% growth inhibitory concentration (IC50) determination assay, K. pneumoniae; conditions: Klebsiella pneumoniae, read-out: IC50 (μM) K. pneumoniae ATCC10031
Procedure: as §1, §2, §3, §4, §5

E. coli (ATCC 25922) = experiment: Minimal Inhibitory Concentration (MIC) assay; conditions: Escherichia coli, ATCC25922; CAMHB, 20 hours at 35° C.; read-out: MIC (μg/mL) E. coli ATCC 25922
Procedure: The in vitro potency of compounds to inhibit E. coli (ATCC 25922) growth was assessed by MIC (Minimal Inhibitory Concentration) assay. Samples were prepared from 10 mM DMSO stock solutions. After serial 2-fold dilution in DMSO in a master plate (Greiner, Cat No: 651201), 180 μL sterile distilled water was added to 20 μL each aliquot of the samples. Then 10 μL diluted compounds were transferred into a new assay plate (Costar, 3599).
The growth medium […] Mueller Hinton Broth (CAMHB) was prepared by adding the 20 mg per liter CaCl2 and 20 mg per liter MgCl2 into the MHB medium (Jianglai Company, sterilized).
Vials of each of the test microorganisms were maintained frozen in the vapor phase of a liquid nitrogen freezer. Took out the bacteria E. coli ATCC 25922 (KWIKSTIK, 0335K) from liquid nitrogen freezer, thawed it in room temperature, and diluted the bacterial in the CAMHB medium to achieve a final inoculum of 5×10^5 CFU/mL, 90 μL CAMHB with bacteria was dispensed to the assay plate and pipetted 5 times.
Then the assay plates were incubated for 20 hours at 35° C. in ambient air. Following incubation, the MIC (μg/mL), the lowest concentration of drug that inhibits visible growth of the microorganism was read and recorded throw the microscope.

[2] = BW25113, growth inhibition, Iso-Sensitest broth, OD 600 nm over 16 h
[3] = ATCC10031, growth inhibition, Iso-Sensitest broth, OD 600 nm over 16 h, * = detection limit

| SMILES | IC50 (E. coli (BW25113); [2]) [µM] | IC50 [1, 3] [µM] | MIC (E. coli (ATCC 25922)) [µg/mL] | IC50 (E. coli (BW25113); BW25113, 16 h) [µM] | IC50 ([1]; ATCC10031, 16 h) [µM] |
| --- | --- | --- | --- | --- | --- |
| CCNc1cc(F)cc2c1[nH]c1ncc(-c3cnc(NCCOC)nc3)c(-n3ccc(C(F)(F)F)n3)c12 [Example 1.13, N-Ethyl-6-fluoro-3-[2-(2-methoxyethylamino)pyrimidin-5-yl]-4-[3-(trifluoromethyl)pyrazol-1-yl]-9H-pyrido[2,3-b]indol-8-amine] | 1.77 | 0.287 |  |  |  |
| CCNc1cc(F)cc2c1[nH]c1ncc(-c3cnc4c(C#N)cnn4c3)c(-n3ccc(C(F)(F)F)n3)c12 [Example 1.59, 6-[8-(ethylamino)-6-fluoro-4-[3-(trifluoromethyl)pyrazol-1-yl]-9H-pyrido[2,3-b]indol-3-yl]pyrazolo[1,5-a]pyrimidine-3-carbonitrile] | 1.87 | 0.368 |  |  |  |
| CCNc1cc(F)cc2c1[nH]c1ncc(-c3cncc(Cc4nnc(C)o4)c3)c(-n3ccc(C(F)(F)F)n3)c12 [Example 1.58, N-ethyl-6-fluoro-3-[5-[(5-methyl-1,3,4-oxadiazol-2-yl)methyl]-3-pyridyl]-4-[3-(trifluoromethyl)pyrazol-1-yl]-9H-pyrido[2,3-b]indol-8-amine] | 1.52 | ≤ 0.098 |  |  |  |
| CCNc1cc(F)cc2c1[nH]c1ncc(-c3cnc(NC4CCOC4)nc3)c(-n3ccc(C(F)(F)F)n3)c12 (centres unmarked) [Example 1.25, N-Ethyl-6-fluoro-3-[2-(tetrahydrofuran-3-ylamino)pyrimidin-5-yl]-4-[3-(trifluoromethyl)pyrazol-1-yl]-9H-pyrido[2,3-b]indol-8-amine] |  |  | 0.751 (≈ 1.43 µM) |  |  |
| CCNc1cc(F)cc2c1[nH]c1ncc(-c3cnc(O[C@@H]4CCNC4)nc3)c(-n3ccc(C(F)(F)F)n3)c12 [Example 1.55, N-ethyl-6-fluoro-3-[2-[(3R)-pyrrolidin-3-yl]oxypyrimidin-5-yl]-4-[3-(trifluoromethyl)pyrazol-1-yl]-9H-pyrido[2,3-b]indol-8-amine] |  |  |  | 1.03 | ≤ 0.098 |
| CCNc1cc(F)cc2c1[nH]c1ncc(-c3cncc(C(=O)NCCOC)c3)c(-n3ccc(C(F)(F)F)n3)c12 [Example 3.06, 5-[8-(ethylamino)-6-fluoro-4-[3-(trifluoromethyl)pyrazol-1-yl]-9H-pyrido[2,3-b]indol-3-yl]-N-(2-methoxyethyl)pyridine-3-carboxamide] | 1.45 | ≤ 0.098 | 0.734 (≈ 1.36 µM) |  |  |
| CCNc1cc(F)cc2c1[nH]c1ncc(-c3cncc(C#N)c3)c(-n3cc(CO)c(C(F)(F)F)n3)c12 [Example 5.01, 5-[8-(ethylamino)-6-fluoro-4-[4-(hydroxymethyl)-3-(trifluoromethyl)pyrazol-1-yl]-9H-pyrido[2,3-b]indol-3-yl]pyridine-3-carbonitrile] | 0.971 | ≤ 0.098 |  |  |  |
| CCNc1cc(F)cc2c1[nH]c1ncc(-c3cnc(OC)nc3)c(-n3cc(CN)c(C(F)(F)F)n3)c12 [Example 1.27, 4-[4-(Aminomethyl)-3-(trifluoromethyl)pyrazol-1-yl]-N-ethyl-6-fluoro-3-(2-methoxypyrimidin-5-yl)-9H-pyrido[2,3-b]indol-8-amine] | 0.462 | ≤ 0.098 | 0.417 (≈ 0.833 µM) |  |  |
| CCNc1cc(F)cc2c1[nH]c1ncc(-c3cncc(CO)c3)c(-n3ccc(C(F)(F)F)n3)c12 [Example 1.36, [5-[8-(Ethylamino)-6-fluoro-4-[3-(trifluoromethyl)pyrazol-1-yl]-9H-pyrido[2,3-b]indol-3-yl]-3-pyridyl]methanol] | 0.928 | ≤ 0.098 |  |  |  |
| CCNc1cc(F)cc2c1[nH]c1ncc(-c3cncc(C(=O)NC4(COC)CC4)c3)c(-n3ccc(C(F)(F)F)n3)c12 [Example 3.07, 5-[8-(ethylamino)-6-fluoro-4-[3-(trifluoromethyl)pyrazol-1-yl]-9H-pyrido[2,3-b]indol-3-yl]-N-[1-(methoxymethyl)cyclopropyl]pyridine-3-carboxamide] |  |  | 0.767 (≈ 1.35 µM) |  |  |
| CCNc1cc(F)cc2c1[nH]c1ncc(-c3cnc4cccnc4c3)c(-n3ccc(C(F)(F)F)n3)c12 [Example 1.11, N-Ethyl-6-fluoro-3-(1,5-naphthyridin-3-yl)-4-[3-(trifluoromethyl)pyrazol-1-yl]-9H-pyrido[2,3-b]indol-8-amine] | 0.803 | 0.208 | 0.288 (≈ 0.586 µM) |  |  |
| CCNc1cc(F)cc2c1[nH]c1ncc(-c3cncc(C#N)c3)c(-n3cc(C(N)=O)c(C(F)(F)F)n3)c12 [Example 4.01, 1-(3-(5-Cyanopyridin-3-yl)-8-(ethylamino)-6-fluoro-9H-pyrido[2,3-b]indol-4-yl)-3-(trifluoromethyl)-1H-pyrazole-4-carboxamide] | 1.74 | ≤ 0.098 |  |  |  |
| CCNc1cc(F)cc2c1[nH]c1ncc(-c3cncc(C#N)c3)c(-n3cc(C(F)(F)F)cn3)c12 [Example 1.03, 5-[8-(Ethylamino)-6-fluoro-4-[4-(trifluoromethyl)pyrazol-1-yl]-9H-pyrido[2,3-b]indol-3-yl]pyridine-3-carbonitrile] | 1.61 | 0.206 | 0.679 (≈ 1.46 µM) |  |  |
| CCNc1cc(F)cc2c1[nH]c1ncc(-c3cnc(OC)nc3)c(-n3ccc(C(F)(F)F)n3)c12 [Example 1.04, N-Ethyl-6-fluoro-3-(2-methoxypyrimidin-5-yl)-4-[3-(trifluoromethyl)pyrazol-1-yl]-9H-pyrido[2,3-b]indol-8-amine] | 1.56 | 0.13 | 0.552 (≈ 1.17 µM) |  |  |
| CCNc1cc(F)cc2c1[nH]c1ncc(-c3cnc(OC4CCNC4)nc3)c(-n3ccc(C(F)(F)F)n3)c12 (centres unmarked) [Example 1.20, N-Ethyl-6-fluoro-3-(2-pyrrolidin-3-yloxypyrimidin-5-yl)-4-[3-(trifluoromethyl)pyrazol-1-yl]-9H-pyrido[2,3-b]indol-8-amine] |  |  |  | 1.48 | ≤ 0.098 |
| CNc1cc(F)cc2c1[nH]c1ncc(-c3cnc(OC)nc3)c(-n3ccc(C(F)(F)F)n3)c12 [Example 1.02, 6-Fluoro-3-(2-methoxypyrimidin-5-yl)-N-methyl-4-[3-(trifluoromethyl)pyrazol-1-yl]-9H-pyrido[2,3-b]indol-8-amine] | 1.62 | 0.108 |  |  |  |
| CNc1cc(F)cc2c1[nH]c1ncc(-c3cncc(C#N)c3)c(-n3cc(C(F)(F)F)cn3)c12 [Example 1.08, 5-[6-Fluoro-8-(methylamino)-4-[4-(trifluoromethyl)pyrazol-1-yl]-9H-pyrido[2,3-b]indol-3-yl]pyridine-3-carbonitrile] | 1.25 | 0.102 |  |  |  |
| CCc1ncc(-c2cnc3[nH]c4c(NC)cc(F)cc4c3c2-n2ccc(C(F)(F)F)n2)cn1 [Example 1.47, 3-(2-Ethylpyrimidin-5-yl)-6-fluoro-N-methyl-4-[3-(trifluoromethyl)pyrazol-1-yl]-9H-pyrido[2,3-b]indol-8-amine] | 1.29 | 0.105 |  |  |  |
| CCNc1cc(F)cc2c1[nH]c1ncc(-c3cnc(O[C@H]4CCNC4)nc3)c(-n3ccc(C(F)(F)F)n3)c12 [Example 1.56, N-ethyl-6-fluoro-3-[2-[(3S)-pyrrolidin-3-yl]oxypyrimidin-5-yl]-4-[3-(trifluoromethyl)pyrazol-1-yl]-9H-pyrido[2,3-b]indol-8-amine] |  |  |  | 1 | ≤ 0.098 |
| CCNc1cc(F)cc2c1[nH]c1ncc(-c3cnc(OC4CNC4)nc3)c(-n3ccc(C(F)(F)F)n3)c12 [Example 1.23, 3-[2-(Azetidin-3-yloxy)pyrimidin-5-yl]-N-ethyl-6-fluoro-4-[3-(trifluoromethyl)pyrazol-1-yl]-9H-pyrido[2,3-b]indol-8-amine] | 1.98 | ≤ 0.098 |  |  |  |
| CCNc1cc(F)cc2c1[nH]c1ncc(-c3cnc(N4CCNCC4)nc3)c(-n3ccc(C(F)(F)F)n3)c12 [Example 1.52, N-ethyl-6-fluoro-3-(2-piperazin-1-ylpyrimidin-5-yl)-4-[3-(trifluoromethyl)pyrazol-1-yl]-9H-pyrido[2,3-b]indol-8-amine] | 1.22 | 0.146 |  |  |  |
| CCNc1cc(F)cc2c1[nH]c1ncc(-c3cnc(OCC(C)(C)N)nc3)c(-n3ccc(C(F)(F)F)n3)c12 [Example 1.30, 3-[2-(2-Amino-2-methyl-propoxy)pyrimidin-5-yl]-N-ethyl-6-fluoro-4-[3-(trifluoromethyl)pyrazol-1-yl]-9H-pyrido[2,3-b]indol-8-amine] | 1.56 | 0.159 |  |  |  |
